Measured values reported in the supplement of paper PMC10307832.

Tests used:
Test in all cases: relative viability (nuclei count vs DMSO), 5 days (fraction); higher = more cells survive
[1] = compound: Cn1c(=O)n(-c2ccc(C(C)(C)C#N)cc2)c2c3cc(-c4cnc5ccccc5c4)ccc3ncc21 [Dactolisib] + CC(C)C[C@H](NC(=O)[C@H](Cc1ccccc1)NC(=O)c1cnccn1)B(O)O [Bortezomib] (partner 0.002 µM)
How it was run: (§1)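 Medians of duplicate plates are given as relative viability. That measure is the nuclei count in treated wells divided by the count in vehicle wells. Counts were taken on 4× images of lung cancer cell lines in 1536-well plates, 5 days after pin-tool dosing the day after seeding with one drug alone or a fixed anchor-drug dose plus five library-drug doses (not always all listed) in √10 steps.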

[2] = compound: C1CCC(CC1)N(CCNCCC2=C3C(=C(C=C2)O)NC(=O)CO3)C(=O)CCNCCC4=CC(=C(C=C4)Cl)Cl [AZ505] + Cc1nc(NC(=O)N2CCC[C@H]2C(N)=O)sc1-c1ccnc(C(C)(C)C(F)(F)F)c1 [Alpelisib] (partner 2 µM)
How it was run: as §1

[3] = compound: C1CCC(CC1)N(CCNCCC2=C3C(=C(C=C2)O)NC(=O)CO3)C(=O)CCNCCC4=CC(=C(C=C4)Cl)Cl [AZ505]
How it was run: (§2)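 After an overnight hold at 37 °C, lung cancer cell lines in 1536-well plates were pinned with five library-drug doses (not always all listed), each √10 from the next, on vehicle-anchored plates. The cells stayed 5 days without fresh medium, then a one-step fix, permeabilisation and Hoechst stain preceded 4× imaging and MetaXpress nuclear counts. A plate passed only with control CV under 25% and at least one doubling. Viability is the median, over plates, of treated-well nuclei relative to vehicle-well nuclei.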

[4] = compound: Cn1c(=O)n(-c2ccc(C(C)(C)C#N)cc2)c2c3cc(-c4cnc5ccccc5c4)ccc3ncc21 [Dactolisib]
How it was run: as §2

Row | Cell Line | relative viability ([1]; first compound 0.002 µM) | relative viability ([1]; first compound 0.006325 µM) | relative viability ([1]; first compound 0.02 µM) | relative viability ([1]; first compound 0.06325 µM) | relative viability ([1]; first compound 0.2 µM) | relative viability ([2]; first compound 0.08 µM) | relative viability ([2]; first compound 0.253 µM) | relative viability ([2]; first compound 0.8 µM) | relative viability ([2]; first compound 2.53 µM) | relative viability ([2]; first compound 8 µM) | relative viability ([3]; 0.08 µM) | relative viability ([3]; 0.253 µM) | relative viability ([3]; 0.8 µM) | relative viability ([3]; 2.53 µM) | relative viability ([3]; 8 µM) | relative viability ([4]; 0.002 µM) | relative viability ([4]; 0.006325 µM) | relative viability ([4]; 0.02 µM) | relative viability ([4]; 0.06325 µM) | relative viability ([4]; 0.2 µM)
1 | NCI-H1975 | 0.362 | 0.338 | 0.323 | 0.209 | 0.183 | 0.578 | 0.689 | 0.651 | 0.651 | 0.654 | 0.831 | 0.848 | 0.951 | 0.901 | 0.972 | 0.922 | 0.957 | 0.824 | 0.483 | 0.315
2 | CAL-12T | 1.05 | 1.13 | 0.825 | 0.721 | 0.338 | 1.05 | 1.23 | 1.23 | 1.24 | 1.33 | 0.909 | 0.941 | 0.967 | 0.956 | 1.03 | 1.01 | 0.976 | 0.721 | 0.342 | 0.323
3 | NCI-H1623 |  |  |  |  |  |  |  |  |  |  | 0.894 | 1.03 | 0.984 | 0.937 | 1.04 | 1.14 | 0.968 | 0.918 | 0.531 | 0.402
4 | HCC-44 | 0.932 | 0.84 | 0.968 | 0.535 | 0.516 | 0.734 | 0.751 | 0.75 | 0.901 | 0.869 | 0.951 | 0.945 | 0.934 | 1.01 | 1.02 | 0.979 | 1.01 | 1.03 | 0.688 | 0.929
5 | EKVX | 1.09 | 0.997 | 1.02 | 0.941 | 0.396 | 0.896 | 1.04 | 0.896 | 0.899 | 1.01 | 0.957 | 0.961 | 0.952 | 0.89 | 1.03 | 1.02 | 0.971 | 0.858 | 0.691 | 0.417
6 | NCI-H1944 |  |  |  |  |  | 0.845 | 0.858 | 0.839 | 0.806 | 0.881 | 0.949 | 0.989 | 1.06 | 0.861 | 1.02 | 1.12 | 0.973 | 0.917 | 0.387 | 0.402
7 | NCI-H358 |  |  |  |  |  | 0.699 | 0.741 | 0.859 | 0.729 | 0.795 | 0.785 | 0.829 | 0.812 | 0.755 | 0.925 | 0.914 | 0.895 | 0.834 | 0.413 | 0.272
8 | NCI-H1793 |  |  |  |  |  | 0.734 | 0.804 | 0.827 | 0.844 | 0.881 | 0.805 | 0.883 | 0.83 | 0.768 | 0.976 | 0.807 | 0.569 | 0.474 | 0.242 | 0.241
9 | ChaGo-K-1 | 0.977 | 1.07 | 0.861 | 1.04 | 0.755 |  |  |  |  |  | 0.959 | 1 | 1.05 | 1.01 | 1.12 | 0.963 | 0.964 | 0.945 | 0.909 | 0.868
10 | NCI-H2342 |  |  |  |  |  |  |  |  |  |  | 1.03 | 1.08 | 1.17 | 1.07 | 1.08 | 0.997 | 0.999 | 0.862 | 0.843 | 0.591
11 | NCI-H1650 | 0.224 | 0.213 | 0.212 | 0.208 | 0.228 |  |  |  |  |  | 0.828 | 0.973 | 0.882 | 0.926 | 1.04 | 0.943 | 0.92 | 0.867 | 0.468 | 0.41
12 | SW 900 |  |  |  |  |  |  |  |  |  |  | 0.857 | 0.856 | 0.818 | 0.963 | 0.97 | 0.913 | 0.769 | 0.714 | 0.329 | 0.346
13 | SK-MES-1 |  |  |  |  |  | 0.881 | 0.954 | 0.922 | 0.873 | 0.964 | 0.92 | 0.953 | 0.909 | 0.943 | 0.935 | 1.1 | 0.983 | 0.914 | 0.542 | 0.339
14 | NCI-H1648 |  |  |  |  |  |  |  |  |  |  | 0.734 | 1.01 | 0.883 | 1.01 | 1.15 | 0.842 | 0.869 | 1.01 | 0.451 | 0.319
15 | NCI-H522 |  |  |  |  |  |  |  |  |  |  | 0.922 | 0.961 | 0.981 | 1.05 | 1 | 0.971 | 0.932 | 0.967 | 0.895 | 0.568
16 | LK-2 |  |  |  |  |  | 0.968 | 0.923 | 1.29 | 1.13 | 1.16 | 0.974 | 1.17 | 0.941 | 1.09 | 1.11 | 0.905 | 0.877 | 0.846 | 0.433 | 0.253
17 | NCI-H1395 |  |  |  |  |  | 1.1 | 1.3 | 0.935 | 1.11 | 1.16 | 0.901 | 0.815 | 0.879 | 0.903 | 1.03 | 0.781 | 0.852 | 0.807 | 0.67 | 0.577
18 | A549 |  |  |  |  |  | 0.796 | 0.666 | 0.872 | 0.79 | 0.795 | 0.864 | 0.985 | 0.93 | 0.968 | 1.04 | 0.995 | 0.871 | 0.729 | 0.225 | 0.182
19 | NCI-H2170 |  |  |  |  |  | 0.804 | 0.914 | 0.719 | 0.846 | 0.918 | 0.953 | 1.01 | 0.932 | 0.998 | 0.976 | 1.02 | 0.971 | 0.96 | 0.648 | 0.447
